Consider 5 compounds from patent US20100021989A1, “COMPOSITIONS AND METHODS OF CONTROLLING AND ADMINISTERING REDOX SPECIFIC FORMS OF DRUGS, FOODS AND DIETARY SUPPLEMENTS” (priority 2008, published 2010).

One series deals with Bcl-xL (Homo sapiens, UniProt Q07817). Particulars: Kitada et al., 2003; cited from earlier work.
Series [1] is described as follows: Toxicity, Neutral Red Uptake. The note with it: host cells.
The next series concerns Vero cells. The series can be described thus: Toxicity to Vero cells, Cell Titer 96 Aqueous Cell Proliferation Assay.

Bcl-xL, sequence (Q07817 whole entry): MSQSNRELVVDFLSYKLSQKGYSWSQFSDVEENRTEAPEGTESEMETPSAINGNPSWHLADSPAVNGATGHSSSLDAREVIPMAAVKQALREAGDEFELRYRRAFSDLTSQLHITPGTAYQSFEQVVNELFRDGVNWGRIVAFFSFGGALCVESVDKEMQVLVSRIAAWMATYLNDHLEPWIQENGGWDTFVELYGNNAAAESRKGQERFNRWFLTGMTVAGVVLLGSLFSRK

`O=C(O[C@@H]1Cc2c(O)cc(O)cc2O[C@H]1c1ccc(O)c(O)c1)c1cc(O)c(O)c(O)c1` [CG, catechin-3 gallate]: the Ki entry at Bcl-xL is on record as “nanomolar range”.
For `Nc1nc2c(ncn2COCCO)c(=O)[nH]1` [ACV], the CC50 in series [1] was over 100 µg/mL.
Take `O=C(O[C@@H]1Cc2c(O)cc(O)cc2O[C@@H]1c1cc(O)c(O)c(O)c1)c1cc(O)c(O)c(O)c1` [Reduced EGCG]: the “Cell Titer 96 assay reading, mean ± SD” value in the series on Vero cells (50 μM, 24 hours after addition) is 0.753 ± 0.027; in the series on Vero cells (50 μM, 48 hours after addition), 0.750 ± 0.033; in the series on Vero cells (75 μM, 24 hours after addition) it was 0.685 ± 0.052; with Vero cells (75 μM, 48 hours after addition), 0.706 ± 0.026; with Vero cells (100 μM, 24 hours after addition), 0.700 ± 0.043; in the series with Vero cells (100 μM, 48 hours after addition) it was 0.705 ± 0.019.
On to epicatechin-3 gallate [ECG], for which the Ki result at Bcl-xL is recorded as “nanomolar range”.
`O=C(O[C@@H]1Cc2c(O)cc(O)cc2O[C@H]1c1cc(O)c(O)c(O)c1)c1cc(O)c(O)c(O)c1` [GCG, gallocatechin-3 gallate]: the Ki entry on Bcl-xL is “nanomolar range”.

One may read the CC50 as the concentration giving 50% cytotoxicity. Higher therefore signals lower toxicity to the cells.
